In test [1] the target is human CD38 (Homo sapiens (Human), UniProt P28907). Briefly: NAD+ cyclase activity assay with human recombinant CD38 protein. It is filed as biochemical. To be noted: 1.9 nM human CD38, 15.8 μM e-NAD substrate, fluorescence read-out. The protocol:
(§1) Example 5: NAD^+ Cydase Activity Assay with Human or Mouse Recombinant CD38 Protein
(§2) The following assay was used to determine the ability of compounds of the invention to inhibit the hydrolysis of NAD^+ by the human or mouse enzyme, CD38.
(§3) Reaction buffer: 40 mM HEPES/NaOH pH 7.5, 250 mM sucrose, 0.01% Tween
(§4) Final concentrations: 0.6 nM mouse CD38 (4947-AC, Bio-Techne GmbH) 1.9 nM human CD38 (AVI2404, Bio-Techne GmbH)
(§5) Substrate: 15.8 μM Nicotinamide 1,N6-ethenoadenine dinucleotide (E-NAD)
(§6) Read-out: Fluorescence intensity (extinction 300 nm/emission 410 nm)
(§7) Required reaction buffer, required CD38 concentration in reaction buffer and required e-NAD concentration in reaction buffer were prepared. Thereafter, 8 μL of CD38 in reaction buffer were added to High Control and compound concentration wells in 384 well plate (Corning #4514, 384 well, nonbinding surface, low volume, round bottom) and 8 μL of reaction buffer to Low Control. Compound dilutions were transferred via pintool technology that transfers 42.5 nL compound dilutions (12-point dose-response with factor three dilutions in 100% DMSO) well-to-well. Plate was subsequently shaken for 15 s at 1450 rpm and sealed for incubation for 30 min at room temperature. Thereafter, 2 μL of e-NAD in reaction buffer were added with Integra Voyager. After shaking for 15 s at 1450 rpm, plate was sealed, and assay signal was measured continuously with PHERAstar® fluorescence intensity module (extinction 300 nm/emission 410 nm).
(§8) Dose-response curves were constructed using twelve-point factor three dilutions in triplicates per plate. High control (full enzyme activity) was set to assay signal of CD38 and e-NAD in presence of vehicle (DMSO) and Low control (full enzyme inhibition) was set to assay signal of e-NAD and vehicle (DMSO) in absence of CD38. For data analysis, fluorescent signal of traces corresponding to each compound concentration and High and Low control was monitored over time. Each run, High Control (full enzyme activity) was fitted to Linear equation via GraphPad Prism to determine CD38 activity from the slope and determine the time interval of linear phase of reaction to account for minor fluctuations. Thereafter, slopes of all compound concentrations were determined via fitting to same linear equation (GraphPad Prism) over the same time interval as determined for High control. Percentage inhibition was calculated via normalization to High and Low Control via the equation: %−inhibition=100*(1−((Sample−Low control)/(High control−Low control))) Half maximal inhibitory concentration (IC50) values are yielded from the inflection point of the corresponding curve by fitting of resulting percentage inhibition values to standard equation (4 Parameter Logistic Model or Sigmoidal Dose-Response Model) via Excel Fit. Unless otherwise stated, fitting of curves was fixed to 100%-inhibition and unlocked for 0%-inhibition.

The target in test [2] is mouse CD38 (Mus musculus (Mouse), UniProt P56528). Briefly: NAD+ cyclase activity assay with mouse recombinant CD38 protein. It is filed as biochemical. Particulars: 0.6 nM mouse CD38, 15.8 μM e-NAD substrate, fluorescence read-out. The protocol:
as §1, §2, §3, §4, §5, §6, §7, §8

This note sets out measurements from US20250326739A1, “CD38 MODULATORS AND USES THEREOF” (Aeovian Pharmaceuticals, Inc., priority 2022, published 2025).

In general, IC50 refers to the point on the concentration scale where inhibition reaches its midpoint.

Counter-ions that a name gives are not always drawn.

Sequence of human CD38 (P28907 whole entry): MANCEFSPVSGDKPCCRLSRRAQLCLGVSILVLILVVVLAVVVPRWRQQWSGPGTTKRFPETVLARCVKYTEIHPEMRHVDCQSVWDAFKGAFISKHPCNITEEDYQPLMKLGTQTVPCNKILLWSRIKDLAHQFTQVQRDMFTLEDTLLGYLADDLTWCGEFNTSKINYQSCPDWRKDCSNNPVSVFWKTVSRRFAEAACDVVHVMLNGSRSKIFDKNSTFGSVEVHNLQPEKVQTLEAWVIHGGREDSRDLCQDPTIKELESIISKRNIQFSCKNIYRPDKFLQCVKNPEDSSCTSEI
Sequence of mouse CD38 (P56528 whole entry): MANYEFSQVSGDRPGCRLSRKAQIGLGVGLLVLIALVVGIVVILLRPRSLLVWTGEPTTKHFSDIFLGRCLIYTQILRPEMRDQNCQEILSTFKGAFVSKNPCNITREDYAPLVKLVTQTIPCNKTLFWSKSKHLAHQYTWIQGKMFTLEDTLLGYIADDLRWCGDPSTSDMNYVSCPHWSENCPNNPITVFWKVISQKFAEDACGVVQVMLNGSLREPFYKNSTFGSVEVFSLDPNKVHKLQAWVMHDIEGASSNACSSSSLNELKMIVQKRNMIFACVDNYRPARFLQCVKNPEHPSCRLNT

With `Cc1cc(C(=O)NC2CCN(S(=O)(=O)C3CCOC3)CC2)nc(-n2ccnc2)c1` (centres unmarked) [Compound 72A, 6-(1H-Imidazol-1-yl)-4-methyl-N-(1-((tetrahydrofuran-3-yl)sulfonyl)piperidin-4-yl)picolinamide], the figures for the IC50 in test [1] and in test [2] were less than 30 nM and less than 1 nM, respectively.

As for `Cc1cc(C(=O)N[C@H]2COCC(F)(F)C2)nc(-n2ccnc2)c1` [Compound 66A, (R)—N-(5,5-Difluorotetrahydro-2H-pyran-3-yl)-6-(1H-imidazol-1-yl)-4-methylpicolinamide], the IC50 in test [1] is 30 to 100 nM; in test [2], less than 1 nM.

For `CCCC(=O)N1CCC(NC(=O)c2cc(C)cc(-n3ccnc3)n2)CC1` [Compound 13A, N-(1-Butyrylpiperidine-4-yl)-6-(1H-imidazol-1-yl)-4-methylpicolinamide], the results for the IC50 in test [1] and in test [2] were 30 to 100 nM and 1 to 10 nM, respectively.

Regarding `Cc1cc(C(=O)N[C@H]2CCCOC2)nc(-n2ccnc2)c1` [Compound 45A, (S)-6-(1H-Imidazol-1-yl)-4-methyl-N-(tetrahydro-2H-pyran-3-yl)picolinamide], the IC50 in test [1] lay in the range of 100 to 1000 nM; in test [2] it was 1 to 10 nM.

Take `Cc1cc(C(=O)NC2CC3CCC(C2)O3)nc(-n2ccnc2)c1` (centres unmarked) [Compound 28A, N-(8-Oxabicyclo[3.2.1]octan-3-yl)-6-(1H-imidazol-1-yl)-4-methylpicolinamide]: the results for the IC50 in test [1] and in test [2] were 100 to 1000 nM and 1 to 10 nM, respectively.

Take `Cc1cc(C(=O)NC2CCN(S(=O)(=O)C3CCCCC3)CC2)nc(-n2ccnc2)c1` [Compound 5A, N-(1-(Cyclohexylsulfonyl)piperidin-4-yl)-6-(1H-imidazol-1-yl)-4-methylpicolinamide]: the IC50 was less than 30 nM in test [1] and 1 to 10 nM in test [2].

Consider `Cc1cc(C(=O)N[C@H]2CCS(=O)(=O)C2)nc(-n2ccnc2)c1` [Compound 55A, (S)—N-(1,1-Dioxidotetrahydrothiophen-3-yl)-6-(1H-imidazol-1-yl)-4-methylpicolinamide], for which the values for the IC50 in test [1] and in test [2] were 100 to 1000 nM and 1 to 10 nM, respectively.

In the case of `Cc1cc(C(=O)NC2CCN(S(C)(=O)=O)CC2)nc(-n2ccnc2)n1` [Compound 61A, 2-(1H-Imidazol-1-yl)-6-methyl-N-(1-(methylsulfonyl)piperidin-4-yl)pyrimidine-4-carboxamide], the IC50 in test [1] is less than 30 nM; in test [2] it was less than 1 nM.

In the case of `Cc1cc(C(=O)N[C@@H]2CCC(C)(C)OC2)nc(-n2ccnc2)c1` [Compound 64A, (R)—N-(6,6-Dimethyltetrahydro-2H-pyran-3-yl)-6-(1H-imidazol-1-yl)-4-methylpicolinamide], the IC50 in test [1] lay in the range of 30 to 100 nM; in test [2] it was 1 to 10 nM.

As to `CS(=O)(=O)N1CCC(NC(=O)c2ccnc(-n3ccnc3)n2)CC1` [Compound 73A, 2-(1H-Imidazol-1-yl)-N-(1-(methylsulfonyl)piperidin-4-yl)pyrimidine-4-carboxamide], the IC50 is less than 30 nM in test [1] and 1 to 10 nM in test [2].

With `O=C(N[C@@H]1CCS(=O)(=O)C1)c1cc(C(F)(F)F)nc(-n2ccnc2)n1` [Compound 77A, (R)—N-(1,1-Dioxidotetrahydrothiophen-3-yl)-2-(1H-imidazol-1-yl)-6-(trifluoromethyl)pyrimidine-4-carboxamide], the IC50 in test [1] fell in the range of 30 to 100 nM; in test [2], 1 to 10 nM.

Turning to `Cc1cc(C(=O)N[C@H]2CCCN(C)C2=O)nc(-n2ccnc2)c1` [Compound 85A, (S)-6-(1H-Imidazol-1-yl)-4-methyl-N-(1-methyl-2-oxopiperidin-3-yl)picolinamide], the values for the IC50 in test [1] and in test [2] were 100 to 1000 nM and 10 to 100 nM, respectively.

Turning to `Cc1cc(C(=O)N[C@@H]2CCCN(C3COC3)C2)nc(-n2ccnc2)c1` [Compound 83A, (R)-6-(1H-Imidazol-1-yl)-4-methyl-N-(1-(oxetan-3-yl)piperidin-3-yl)picolinamide], the IC50 is greater than 1000 nM in test [1] and 10 to 100 nM in test [2].

For the compound `Cc1cc(C(=O)NC2CCCOC2)nc(-n2ccnc2)c1` (centres unmarked) [Compound 9A, 6-(1H-Imidazol-1-yl)-4-methyl-N-(tetrahydro-2H-pyran-3-yl)picolinamide], the figures for the IC50 in test [1] and in test [2] were less than 30 nM and 1 to 10 nM, respectively.

Take `Cc1cc(C(=O)N[C@H]2CCCNC2)nc(-n2ccnc2)c1` [Compound 48A, (S)-6-(1H-Imidazol-1-yl)-4-methyl-N-(piperidin-3-yl)picolinamide dihydrochloride]: the IC50 in test [1] was greater than 1000 nM; in test [2], 10 to 100 nM.

`Cc1cc(C(=O)NC2CCOC(C)C2)nc(-n2ccnc2)c1` (centres unmarked) [Compound 30A, 6-(1H-Imidazol-1-yl)-4-methyl-N-(2-methyltetrahydro-2H-pyran-4-yl)picolinamide]: the IC50 in test [1] was in the range of 30 to 100 nM; in test [2], 1 to 10 nM.

Turning to `Cc1cc(C(=O)N[C@H]2CCOC2)nc(-n2ccnc2)c1` [Compound 38A, (S)-6-(1H-Imidazol-1-yl)-4-methyl-N-(tetrahydrofuran-3-yl)picolinamide], the IC50 in test [1] is 100 to 1000 nM; in test [2], 1 to 10 nM.

Take `Cc1cc(C(=O)N[C@H]2CCCS(=O)(=O)C2)nc(-n2ccnc2)c1` [Compound 84A, (S)—N-(1,1-Dioxidotetrahydro-2H-thiopyran-3-yl)-6-(1H-imidazol-1-yl)-4-methylpicolinamide]: the results for the IC50 in test [1] and in test [2] were 100 to 1000 nM and 10 to 100 nM, respectively.

For the compound `Cc1cc(C(=O)NC2CCN(S(=O)(=O)C3COC3)CC2)nc(-n2ccnc2)c1` [Compound 87A, 6-(1H-Imidazol-1-yl)-4-methyl-N-(1-(oxetan-3-ylsulfonyl)piperidin-4-yl)picolinamide], the IC50 in test [1] is less than 30 nM; in test [2], 1 to 10 nM.

As to `Cc1cc(C(=O)N[C@@H]2CCN(S(C)(=O)=O)C2)nc(-n2ccnc2)c1` [Compound 53A, (R)-6-(1H-Imidazol-1-yl)-4-methyl-N-(1-(methylsulfonyl)pyrrolidin-3-yl)picolinamide], the IC50 lay within 100 to 1000 nM in test [1] and 1 to 10 nM in test [2].

On to `Cc1cc(C(=O)NC2CCCCCC2)nc(-n2ccnc2)c1` [Compound 34A, N-Cycloheptyl-6-(1H-imidazol-1-yl)-4-methylpicolinamide], for which the IC50 in test [1] is less than 30 nM; in test [2], 1 to 10 nM.

Turning to `Cc1cc(C(=O)NC2CCN(C(=O)N(C)C)CC2)nc(-n2ccnc2)c1` [Compound 21A, N-(1-(Dimethylcarbamoyl)piperidin-4-yl)-6-(1H-imidazol-1-yl)-4-methylpicolinamide], the IC50 in test [1] was in the range of 30 to 100 nM; in test [2], 1 to 10 nM.

Regarding `Cc1cc(C(=O)N[C@H]2CCC(C)(C)OC2)nc(-n2ccnc2)c1` [Compound 65A, (S)—N-(6,6-Dimethyltetrahydro-2H-pyran-3-yl)-6-(1H-imidazol-1-yl)-4-methylpicolinamide], the 50% inhibitory concentration (IC50) in test [1] lay in the range of 100 to 1000 nM; in test [2] it was 1 to 10 nM.

Consider `O=C(N[C@@H]1CCS(=O)(=O)C1)c1cc(C(F)(F)F)cc(-n2ccnc2)n1` [Compound 78A, (R)—N-(1,1-Dioxidotetrahydrothiophen-3-yl)-6-(1H-imidazol-1-yl)-4-(trifluoromethyl)picolinamide], for which the values for the IC50 in test [1] and in test [2] were less than 30 nM and 1 to 10 nM, respectively.

As to `Cc1cc(C(=O)NC2C3COCC32)nc(-n2ccnc2)c1` (centres unmarked) [Compound 31A, N-(3-Oxabicyclo[3.1.0]hexan-6-yl)-6-(1H-imidazol-1-yl)-4-methylpicolinamide], the IC50 was in the range of 30 to 100 nM in test [1] and 1 to 10 nM in test [2].

As to `Cc1cc(C(=O)N[C@@H]2CCS(=O)(=O)C2)nc(-n2ccnc2)c1` [Compound 86A, (R)—N-(1,1-Dioxidotetrahydrothiophen-3-yl)-6-(1H-imidazol-1-yl)-4-methylpicolinamide], the results for the IC50 in test [1] and in test [2] were less than 30 nM and 1 to 10 nM, respectively.

With `Cc1cc(C(=O)N[C@@H]2CCCNC2)nc(-n2ccnc2)c1` [Compound 51A, (R)-6-(1H-Imidazol-1-yl)-4-methyl-N-(piperidin-3-yl)picolinamide dihydrochloride], the IC50 was greater than 1000 nM in test [1] and greater than 100 nM in test [2].

`Cc1cc(C(=O)NC2CCOCC2)nc(-n2ccnc2)c1` [Compound 32A, 6-(1H-Imidazol-1-yl)-4-methyl-N-(tetrahydro-2H-pyran-4-yl)picolinamide]: the IC50 in test [1] lay within 30 to 100 nM; in test [2], 1 to 10 nM.
